In PubChem BioAssay AID330 (DTP/NCI, 2004):
Where “and” joins values, the source holds several entries; their conditions need not be identical. Identical values can stand only once. Toxic doses and inconclusive results are not listed.

Tested on: P388 leukemia ip, CD2F1 mice, survival T/C
Test: NCI In Vivo Anticancer Drug Screen. Data for tumor model P388 Leukemia (intraperitoneal) in CD2F1 (CDF1) mice
Conditions: endpoint: median survival time, higher = longer survival
Summary of the method: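 Mice carrying the transplanted tumor received test compound or vehicle. Survival was recorded in each group, and the value is the treated-group measurement divided by that of the vehicle-treated control group.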

[1] = dose: 100.0 mg/kg/injection, schedule: Q04DX003 (ip), vehicle: saline with Tween-80
[2] = dose: 200.0 mg/kg/injection, schedule: Q04DX003 (ip), vehicle: saline with Tween-80
[3] = dose: 50.0 mg/kg/injection, schedule: Q01DX009 (ip), vehicle: saline
[4] = dose: 100.0 mg/kg/injection, schedule: Q01DX009 (ip), vehicle: saline
[5] = dose: 25.0 mg/kg/injection, schedule: Q04DX002 (ip), vehicle: saline with Tween-80
[6] = dose: 25.0 mg/kg/injection, schedule: Q01DX005 (ip), vehicle: Klucel (hydroxypropylcellulose) (HPC)
[7] = dose: 12.5 mg/kg/injection, schedule: Q01DX009 (ip), vehicle: saline with Tween-80
[8] = dose: 25.0 mg/kg/injection, schedule: Q01DX009 (ip), vehicle: saline with Tween-80
[9] = dose: 50.0 mg/kg/injection, schedule: Q01DX009 (ip), vehicle: saline with Tween-80
[10] = dose: 100.0 mg/kg/injection, schedule: Q01DX009 (ip), vehicle: saline with Tween-80
[11] = dose: 50.0 mg/kg/injection, schedule: Q01DX009 (ip), vehicle: Klucel (hydroxypropylcellulose) (HPC)
[12] = dose: 100.0 mg/kg/injection, schedule: Q01DX009 (ip), vehicle: Klucel (hydroxypropylcellulose) (HPC)
[13] = dose: 200.0 mg/kg/injection, schedule: Q01DX009 (ip), vehicle: Klucel (hydroxypropylcellulose) (HPC)
[14] = dose: 15.0 mg/kg/injection, schedule: Q01DX005 (ip), vehicle: saline with Tween-80
[15] = dose: 60.0 mg/kg/injection, schedule: Q01DX005 (ip), vehicle: saline with Tween-80
[16] = dose: 6.25 mg/kg/injection, schedule: Q01DX009 (ip), vehicle: saline
[17] = dose: 12.5 mg/kg/injection, schedule: Q01DX009 (ip), vehicle: saline
[18] = dose: 25.0 mg/kg/injection, schedule: Q01DX009 (ip), vehicle: saline
[19] = dose: 200.0 mg/kg/injection, schedule: Q01DX009 (ip), vehicle: saline with Tween-80

In the case of `O=C(O)C(CSC(c1ccccc1)(c1ccccc1)c1ccccc1)N=Cc1ccccc1O` (stereo not given), the T/C [1] was 168 % of control, the T/C (dose: 150.0 mg/kg/injection, schedule: Q04DX003 (ip), vehicle: saline with Tween-80) was 190 % of control and the T/C [2] was 122 % of control.
In the case of `CNS(=O)(=O)Cc1ccccc1`, the T/C [3] was 107 % of control, the T/C [4] was 107 % of control and the T/C (dose: 200.0 mg/kg/injection, schedule: Q01DX009 (ip), vehicle: saline) was 100 % of control. The T/C (dose: 400.0 mg/kg/injection, schedule: Q01DX009 (ip), vehicle: saline) was 108 % of control.
For `COC1=CC(=O)C2=C(OCO2)C1=O`, the T/C (dose: 6.25 mg/kg/injection, schedule: Q04DX002 (ip), vehicle: saline with Tween-80) was 104 % of control, the T/C (dose: 12.5 mg/kg/injection, schedule: Q04DX002 (ip), vehicle: saline with Tween-80) was 109 % of control and the T/C [5] was 103 % of control.
With `C[C@H]1CC[C@@H]2[C@@H](C)[C@H]3[C@H](C[C@H]4[C@@H]5CC=C6C[C@@H](O)CC[C@]6(C)[C@H]5C[C@H](O)[C@]34C)N2C1` the T/C [6] was 101 % of control and 105 % of control.
`Cc1cc(C)nc(NS(=O)(=O)c2ccc(NC(=O)c3ccncc3)cc2)n1` was tested, and the T/C (dose: 50.0 mg/kg/injection, schedule: Q01DX005 (ip), vehicle: Klucel (hydroxypropylcellulose) (HPC)) was 95 % of control, the T/C (dose: 100.0 mg/kg/injection, schedule: Q01DX005 (ip), vehicle: Klucel (hydroxypropylcellulose) (HPC)) was 96 % of control and the T/C (dose: 200.0 mg/kg/injection, schedule: Q01DX005 (ip), vehicle: Klucel (hydroxypropylcellulose) (HPC)) was 91 % of control.
For `C=CCSC(=S)Nc1nc2ccc(C)cc2s1`, the T/C (dose: 100.0 mg/kg/injection, schedule: Q04DX003 (ip), vehicle: Klucel (hydroxypropylcellulose) (HPC)) was 96 % of control, the T/C (dose: 200.0 mg/kg/injection, schedule: Q04DX003 (ip), vehicle: Klucel (hydroxypropylcellulose) (HPC)) was 98 % of control and the T/C (dose: 400.0 mg/kg/injection, schedule: Q04DX003 (ip), vehicle: Klucel (hydroxypropylcellulose) (HPC)) was 97 % of control.
For `CCCCCCCCCNCC(O)c1cc2c(c3ccccc13)CCCC2` (stereo not given), the T/C (dose: 6.25 mg/kg/injection, schedule: Q01DX005 (ip), vehicle: Klucel (hydroxypropylcellulose) (HPC)) was 92 % of control, the T/C (dose: 12.5 mg/kg/injection, schedule: Q01DX005 (ip), vehicle: Klucel (hydroxypropylcellulose) (HPC)) was 90 % of control and the T/C [6] was 99 % of control.
`O=C(O)c1cc(C(=O)CCCC(=O)c2cc(C(=O)O)c(O)c3ccccc23)c2ccccc2c1O` was tested, and the T/C [7] was 100 % of control, the T/C [8] was 100 % of control and the T/C [9] was 87 % of control. The T/C [10] was 93 % of control.
`COc1ccc(/C=N/NC(N)=O)c(OC)c1OC` was tested, and the T/C [11] was 100 % of control, the T/C [12] was 103 % of control and the T/C [13] was 98 % of control.
For `C=CCOc1cc2c(cc1C/C=C/c1cc(OC)c(OC)c(OC)c1)OCO2`, the T/C [14] was 101 % of control, the T/C (dose: 30.0 mg/kg/injection, schedule: Q01DX005 (ip), vehicle: saline with Tween-80) was 104 % of control and the T/C [15] was 104 % of control and 89 % of control.
`Cc1ccc(N2C(=O)N(c3ccc(C)cc3)C3(Sc4ccccc4N3C)C2=O)cc1` (stereo not given) was tested, and the T/C [5] was 95 % of control, the T/C (dose: 50.0 mg/kg/injection, schedule: Q04DX002 (ip), vehicle: saline with Tween-80) was 92 % of control and the T/C (dose: 100.0 mg/kg/injection, schedule: Q04DX002 (ip), vehicle: saline with Tween-80) was 89 % of control.
With `COc1ccc(C2OC3=C(Nc4ccc([N+](=O)[O-])cc4N3)C2=O)cc1` (stereo not given) the T/C (dose: 0.93 mg/kg/injection, schedule: Q01DX005 (ip), vehicle: Klucel (hydroxypropylcellulose) (HPC)) was 89 % of control, the T/C (dose: 1.87 mg/kg/injection, schedule: Q01DX005 (ip), vehicle: Klucel (hydroxypropylcellulose) (HPC)) was 93 % of control and the T/C (dose: 3.75 mg/kg/injection, schedule: Q01DX005 (ip), vehicle: Klucel (hydroxypropylcellulose) (HPC)) was 92 % of control.
`CC1(C)N=C(N)N=C(N)N1c1ccc(CCC(=O)Nc2ccc(S(=O)(=O)F)cc2)c(Cl)c1` was tested, and the T/C [16] was 157 % of control, the T/C [7] was 187 % of control and the T/C [17] was 200 % of control. For the same molecule, the T/C [8] was 170 % of control, the T/C [18] was 209 % of control and the T/C [9] was 91 % of control. For the same molecule, the T/C [3] was 190 % of control, the T/C [1] was 170 % of control and the T/C (dose: 132.0 mg/kg/injection, schedule: Q04DX003 (ip), vehicle: saline with Tween-80) was 100 % of control. For the same molecule, the T/C [2] was 162 % of control and 190 % of control and the T/C (dose: 400.0 mg/kg/injection, schedule: Q04DX003 (ip), vehicle: saline with Tween-80) was 95 % of control.
`O=C(Nc1ccccc1)Oc1cccc(/C=N/S(=O)(=O)c2cccc([N+](=O)[O-])c2)c1` was tested, and the T/C [9] was 93 % of control, the T/C [10] was 97 % of control and the T/C [19] was 98 % of control.
`N/C(=C\c1nc2ccccc2nc1-c1ccccc1)c1ccccc1Cl` was tested, and the T/C (dose: 60.0 mg/kg/injection, schedule: Q01DX005 (ip), vehicle: Klucel (hydroxypropylcellulose) (HPC)) was 100 % of control and the T/C (dose: 120.0 mg/kg/injection, schedule: Q01DX005 (ip), vehicle: Klucel (hydroxypropylcellulose) (HPC)) was 91 % of control.
In the case of `CC(=O)OC1C=CC(=O)C1` (stereo not given), the T/C (dose: 7.5 mg/kg/injection, schedule: Q01DX005 (ip), vehicle: saline with Tween-80) was 122 % of control and the T/C [14] was 116 % of control.
`COc1ccc(NC(=O)N2CC3CCN2CC3)cc1` was tested, and the T/C [15] was 99 % of control, the T/C (dose: 120.0 mg/kg/injection, schedule: Q01DX005 (ip), vehicle: saline with Tween-80) was 93 % of control and the T/C (dose: 240.0 mg/kg/injection, schedule: Q01DX005 (ip), vehicle: saline with Tween-80) was 90 % of control.
`CCC(=O)NC(CC(C)C)C(=O)NC(CC(C)C)C(=O)NC(C=O)CCCN=C(N)N` (stereo not given) (tested in a mixture with another compound) was tested, and the T/C [16] was 103 % of control, the T/C [17] was 102 % of control and 104 % of control and the T/C [18] was 104 % of control and 96 % of control. The T/C [3] was 102 % of control and 108 % of control and the T/C [4] was 110 % of control.
For `C=C(C)OP(=O)(OCC)OCC`, the T/C (dose: 100.0 mg/kg/injection, schedule: Q01DX001 (ip), vehicle: Klucel (hydroxypropylcellulose) (HPC)) was 100 % of control, the T/C (dose: 200.0 mg/kg/injection, schedule: Q01DX001 (ip), vehicle: Klucel (hydroxypropylcellulose) (HPC)) was 111 % of control and the T/C (dose: 400.0 mg/kg/injection, schedule: Q01DX001 (ip), vehicle: Klucel (hydroxypropylcellulose) (HPC)) was 102 % of control.
In the case of `N#CCCCCCCCCCCCCCC1C=CCC1` (stereo not given), the T/C (dose: 100.0 mg/kg/injection, schedule: Q01DX001 (ip), vehicle: saline) was 106 % of control, the T/C (dose: 200.0 mg/kg/injection, schedule: Q01DX001 (ip), vehicle: saline) was 99 % of control and the T/C (dose: 400.0 mg/kg/injection, schedule: Q01DX001 (ip), vehicle: saline) was 101 % of control.
With `CCCCCCC1(/C=C\c2ccccc2Cl)OCCO1` the T/C [11] was 103 % of control, the T/C [12] was 94 % of control and the T/C [13] was 108 % of control.
`O=C1CC([Se]c2ccccc2)C(=O)N1` (stereo not given) was tested, and the T/C (dose: 6.25 mg/kg/injection, schedule: Q04DX003 (ip), vehicle: Klucel (hydroxypropylcellulose) (HPC)) was 99 % of control, the T/C (dose: 12.5 mg/kg/injection, schedule: Q04DX003 (ip), vehicle: Klucel (hydroxypropylcellulose) (HPC)) was 102 % of control and 104 % of control and the T/C (dose: 25.0 mg/kg/injection, schedule: Q04DX003 (ip), vehicle: Klucel (hydroxypropylcellulose) (HPC)) was 100 % of control and 107 % of control. The T/C (dose: 50.0 mg/kg/injection, schedule: Q04DX003 (ip), vehicle: Klucel (hydroxypropylcellulose) (HPC)) was 100 % of control and 105 % of control.
With `CC(=O)OCC12C3CC(=O)OC1C(OC(=O)C=C(C)C)C1C(C)=CC(=O)C(OC(C)=O)C1(C)C2C(=O)C(OC(C)=O)C3C` (stereo not given) the T/C (dose: 0.5 mg/kg/injection, schedule: Q01DX009 (ip), vehicle: distilled water + Tween-80) was 100 % of control, the T/C (dose: 1.0 mg/kg/injection, schedule: Q01DX009 (ip), vehicle: distilled water + Tween-80) was 97 % of control and the T/C (dose: 2.0 mg/kg/injection, schedule: Q01DX009 (ip), vehicle: distilled water + Tween-80) was 102 % of control. The T/C (dose: 4.0 mg/kg/injection, schedule: Q01DX009 (ip), vehicle: distilled water + Tween-80) was 101 % of control and the T/C (dose: 8.0 mg/kg/injection, schedule: Q01DX009 (ip), vehicle: distilled water + Tween-80) was 102 % of control.
For `C[Si](C)(C)OSc1ccccc1[N+](=O)[O-]`, the T/C (dose: 12.5 mg/kg/injection, schedule: Q01DX009 (ip), vehicle: Klucel (hydroxypropylcellulose) (HPC)) was 121 % of control, the T/C [9] was 120 % of control and the T/C [12] was 122 % of control. The T/C [10] was 114 % of control and the T/C [19] was 115 % of control.
